Read-outs that look alike come from different tables or passages of the source.

The source of these data is paper PMC10033538, “Analysis of 2′-hydroxyflavanone (2HF) in mouse whole blood by HPLC–MS/MS for the determination of pharmacokinetic parameters” (Frontiers in Chemistry, 2023).

Data set [1] deals with tumor growth. Also on record: method as in earlier work. The note with it: single oral doses of 100 mg/kg/day or 25, 50 and 100 mg/kg every other day, ref Yue et al., 2020, Nagaprashantha et al., 2011, Singhal et al., 2018a, 2018b; cited from earlier work.
In data set [2] the test system is Leishmania amazonensis. The note with it: ref Gervazoni et al., cited from earlier work; for In vivo effects in cutaneous leishmaniasis model: single oral dose/day, 2020.
Data set [3] can be described thus: Oral pharmacokinetic study of 2HF in BALB/c mouse blood (HPLC-MS/MS, non-compartmental analysis). It is filed as in vivo. The note with it: BALB/c mice, single oral dose 10 mg/kg, whole blood. The method, then: BALB/c mice, with six mice per group, received a single dose of 10 mg/kg 2HF that was solubilized in DMSO (2%) and suspended in Ora-plus® (Perrigo, Minneapolis, MN, United States). ORA-Plus is an aqueous-based vehicle consisting of suspending agents that have a high degree of colloidal activity, facilitating the process involved in the extemporaneous compounding of oral suspensions. Ora-Plus contains purified water, microcrystalline cellulose, sodium carboxymethylcellulose, xanthan gum, and carrageenan as suspending agents; calcium sulfate, sodium phosphate, and citric acid as buffering agents; simethicone as an antifoaming agent; and potassium sorbate and methylparaben as preservatives, as described in the datasheet. The doses were administered orally using a gavage needle.
Mouse blood (300 µL) was collected via the orbital plexus, one mouse per time, with six replicates (6 mice per time interval). For anesthesia, an ophthalmic solution of tetracaine hydrochloride (1%) and phenylephrine hydrochloride (0,1%) was used, and one drop was administered in the chosen orbital 5 min before collection. The collection was performed with […] Pasteur pipettes that were previously autoclaved, and blood was transferred to 1.5 mL microtubes that were also heparinized. The time intervals determined were 2.5, 5, 7.5, 10, 15, 30, 45, 60, 90, 120, and 240 min after administration of the compound. After collecting all samples, 2HF was extracted as described above.
The pharmacokinetic parameters were obtained by non-compartmental analysis (NCA) using the Phoenix WinNonlin® 8.1 program (CERTARA). The maximum blood peak concentration (Cmax) and time to peak concentration (Tmax) were obtained directly from the blood concentration-time profiles. The area under the concentration-time curve from time zero to time t (AUC0–t) was obtained using the trapezoidal method. The area under the total blood concentration-time curve from time zero to infinity (AUC0–∞) was calculated using Eq. 4 as follows: AUC0–∞=AUC0–t+Clast÷kel (4) where Clast is the concentration observed at the last time, and kel is the apparent elimination rate constant obtained from the terminal slope of the blood concentration-time curve after logarithmic transformation of the blood concentrations and application of linear regression.
The blood elimination half-life (t1/2) was calculated using Eq. 5 as follows: t1/2=ln2÷kel (5)
Apparent oral clearance (CL/F) and apparent volume of distribution (Vd/F) parameters were obtained from the blood concentrations and expressed normalized to bioavailability (F) because only oral data are available.

The test system of data set [4] is Leishmania amazonensis. Also on record: method as in Gervazoni et al., 2018. The note with it: in vitro; ref Gervazoni et al., 2018; cited from earlier work.
The nature of data set [5]: Stability of 2HF in mouse blood (short-term, postpreparative, freeze-thaw, long-term). Format: in vitro ADME, BALB/c mouse. The note with it: for Deviation, short term stability / Mean concentration, short term stability: +22.0 °C; for Deviation, short term stability / Mean concentration, short term stability / Deviation, freeze-thaw stability / Mean concentration, freeze-thaw stability / Deviation, long-term stability / Mean concentration, long-term stability / Deviation, postpreparative stability / Mean concentration, postpreparative stability: n = 8; for Deviation, freeze-thaw stability / Mean concentration, freeze-thaw stability / Deviation, long-term stability / Mean concentration, long-term stability: −70.0 °C; for Deviation, freeze-thaw stability / Mean concentration, freeze-thaw stability: 6 cycles; for Deviation, postpreparative stability / Mean concentration, postpreparative stability: processed mouse blood sample, +10.0 °C. Here is the method: Stability studies were initiated and completed before analyzing the studied samples. The stability in the biological matrix was evaluated through freezing and thawing cycles, short-term and long-term stability, and postpreparative. All tests were performed with eight replicates for each sample concentration level. To carry out the stability tests, an initial quantification test (TQI) was performed in accordance with local regulatory norms that aim to guarantee good practices through quality standards. In this test, samples of LQC […] and HQC […] were analyzed, in which the concentration was determined by utilizing a freshly prepared calibration curve. The number of replicates that were analyzed in each control was the same as that used in the stability tests. Freeze–thaw cycle temperatures are presented in Supplementary Table S4.
The stability of 2HF in BALB/c mouse blood was evaluated using short-term tests at 22 °C, postprocessing stability at +10 °C, stability in freeze–thaw cycles (n = 06 cycles) and long-term stability with the samples stored at −70 °C. In these assays, the quality controls of low and high concentrations, LQC: 3.00 ng/mL and HQC: 200.00 ng/mL, were used.

The conditions of data set [6]: rat plasma, cited from earlier work.
The conditions of data set [7]: ref Gervazoni et al., 2020; cited from earlier work.
Details of data set [8]: method as in Teng et al., 2012. The note with it: ref Teng et al., 2012; cited from earlier work.
The conditions of data set [9]: orally administered to rats; ref Yang et al., 2019a; cited from earlier work.
On the set-up of data set [10]: method as in Yang et al., 2019b. Conditions: rats, 10 mg/kg oral dose; ref Yang et al., 2019b; cited from earlier work.
Where [11] appears, read: sensitive and cutaneous murine model, 2018.
The mark [12] stands for this setting: mouse blood, HQC nominal 200.00 ng/mL.
The mark [13] stands for this setting: mouse blood, LQC nominal 3.00 ng/mL.
Setting [14] is: oral single dose 100 mg/kg, ref Zhao et al., 2020.

In the case of `O=C1CC(c2ccccc2O)Oc2ccccc21` (centres unmarked) [2HF, 2′-Hydroxyflavanone], in [1], the Tumor growth entry is recorded as “inhibited different types of tumor growth”. In data set [2] (daily doses of 50 mg/kg for 35 days, 2018), the “In vivo activity in experimental model of cutaneous leishmaniasis” value is given as “significant effect”. In [2] (setting [11]), the Lesion size entry was “decrease the lesion size” and the Parasitic load entry is recorded as “almost cease the parasitic load”. Further, in [3], the AUC0-inf was 5,524.54 min x ng/mL; the AUC % extrap was 7.30%; the “Cl/F, total blood clearance” value turned out to be 18.10 mL/min; the “Tmax, time to reach Cmax” value came to 5 min. Also, the AUC0-t in data set [3] (trapezoidal method) is recorded as 5,120.98 min x ng/mL. Also, in data set [3] (mouse, NCA, read-out: Kel, elimination rate constant (converted)), the k el was 0.000118 s⁻¹. The half-life in [3] (mouse, NCA, read-out: T1/2, elimination half-time) was found to be 1.63 h. In addition, the Cmax in [3] (mouse, read-out: Cmax, maximum concentration) turned out to be 186 ng/mL. Further, the Vd/F in [3] (mouse, read-out: Vd/F, volume of distribution) came to 2.55 L. Further, the “Inhibition of promastigote and amastigote forms” value in data set [4] was “inhibit both the promastigote and amastigote forms”. For the same compound, the “Deviations in stability tests” value in data set [5] (biological matrix, freezing and thawing, short duration, postprocessing and long duration) is listed as “less than 15%”. In data set [5] (setting [12]), the “Deviation, short term stability” value is 7.53%; the “Mean concentration, short term stability” value worked out at 215.06 ng/mL; the “Deviation, freeze-thaw stability” value is 4.68%; the “Mean concentration, freeze-thaw stability” value is reported as 209.37 ng/mL. Besides, in data set [5] (setting [12]), the “Deviation, long-term stability” value is recorded as 5.42% and the “Mean concentration, long-term stability” value is given as 210.83 ng/mL. In data set [5] (setting [13]), the “Deviation, short term stability” value is 4.59%; the “Mean concentration, short term stability” value turned out to be 3.14 ng/mL; the “Deviation, freeze-thaw stability” value was 1.61%; the “Mean concentration, freeze-thaw stability” value stood at 3.05 ng/mL. Besides, in [5] (setting [13]), the “Deviation, long-term stability” value is reported as −1.33% and the “Mean concentration, long-term stability” value is given as 2.96 ng/mL. For the same compound, in [5] (mouse blood, all stability tests performed), the “Degradation in the biological matrix” value is on record as “no significant degradation”. Moreover, in [5] (HQC nominal 200.00 ng/mL), the “Deviation, postpreparative stability” value came out at 11.08% and the “Mean concentration, postpreparative stability” value turned out to be 222.16 ng/mL. Moreover, in data set [5] (LQC nominal 3.00 ng/mL), the “Deviation, postpreparative stability” value came to 10.11% and the “Mean concentration, postpreparative stability” value was 3.30 ng/mL.

As to `COc1cc(O)cc(O)c1C(=O)/C=C/c1ccccc1` [Cardamonin], the Tmax in [6] (oral single dose 5 mg/kg, ref Jaiswal et al., 2017) is given as 0.50 h.

In the case of `O=C(CCc1ccc(O)cc1)c1c(O)cc(O)cc1O` [Phloretin], in data set [6] (setting [14]), the T1/2 is on record as 2.83 h and the Tmax is reported as 1.25 h.

On to `O=c1cc(-c2ccc(O)cc2)oc2cc(O)cc(O)c12` [apigenin], for which, in data set [7], the T1/2 result is listed as “less than 192 min”. The “In vivo effects in cutaneous leishmaniasis model” value in [2] is given as “promising in vivo effects”. Also, in [8], the Cmax is 42 ng/mL, the T1/2 is on record as 2.11 h and the Tmax was 0.50 h.

On to `O=C1c2c(O)cc(O)cc2O[C@H](c2cc(O)c(O)c(O)c2)[C@H]1O` [dihydromyricetin], for which, in data set [9], the T1/2 is listed as 3.04 h and the Tmax is reported as 0.57 h.

As to `O=C1c2c(O)cc(O)cc2O[C@H](c2ccc(O)c(O)c2)[C@H]1O` [dihydroquercetin], in data set [9], the T1/2 was 2.32 h and the Tmax was 0.28 h.

As to `COc1cc(O)c(C(=O)/C=C/c2ccccc2)c(OC)c1` [flavokavain B], in data set [10], the Cmax was 265.2 ng/mL, the T1/2 is on record as 2.76 h and the “Time of Cmax” value is given as 1 h.

As to `O=c1c(O)c(-c2cc(O)c(O)c(O)c2)oc2cc(O)cc(O)c12` [myricetin], in data set [9], the T1/2 is reported as 2.46 h and the Tmax is listed as 0.22 h.

With `O=c1c(O)c(-c2ccc(O)c(O)c2)oc2cc(O)cc(O)c12` [quercetin], the T1/2 entry in data set [7] is on record as “less than 192 min”; in data set [9] it was 3.00 h. For the same compound, in data set [2], the “In vivo effects in cutaneous leishmaniasis model” value is on record as “promising in vivo effects”. The Tmax in data set [9] was 0.25 h.

In general, Tmax refers to the time at which the peak concentration occurs.
